The results in this text go back to ChEMBL document CHEMBL5131408, “Novel O-acylated amidoximes and substituted 1,2,4-oxadiazoles synthesised from (+)-ketopinic acid possessing potent virus-inhibiting activity against phylogenetically distinct influenza A viruses” (Bioorg Med Chem Lett, 2022).

The first data set deals with Influenza A virus. The data set can be described thus: Antiviral activity against Influenza A virus A/Puerto Rico/8/34 (H1N1) infected in MDCK cells assessed as inhibition of viral replication. The data set is classed as functional, organism-based.
Conditions: not given
Usually IC50 stands for the concentration that inhibits the measured activity by half. On to `CC1(C)[C@@H]2CC[C@@]1(c1nc(-c3ccc(F)cc3)no1)C(=O)C2`, for which the IC50 worked out at 4 µM.
The same measure, in the same setting: next, `CC1(C)[C@@H]2CC[C@@]1(C(=O)O/N=C(\N)c1cccc(F)c1)C(=O)C2`: 6 µM.
Turning to `CC1(C)[C@@H]2CC[C@@]1(c1nc(-c3cccc(F)c3)no1)C(=O)C2`, the IC50 is 6 µM.
Same read-out and setting: next, `CC1(C)[C@@H]2CC[C@@]1(c1nc(-c3ccc(C(F)(F)F)cc3)no1)C(=O)C2`: 7 µM; `CC1(C)[C@@H]2CC[C@@]1(c1nc(-c3ccc(Cl)cc3)no1)C(=O)C2`: 33 µM.
The same measure, in the same setting: with `CC1(C)[C@@H]2CC[C@@]1(c1nc(Cc3ccc(Br)cc3)no1)C(=O)C2` the figure was 13 µM; with `CC1(C)[C@@H]2CC[C@@]1(C(=O)O/N=C(\N)Cc1ccc(Cl)cc1)C(=O)C2`, 15 µM.
Turning to `CC1(C)[C@@H]2CC[C@@]1(c1nc(-c3ccccc3)no1)C(=O)C2`, the IC50 is 5 µM.
Same read-out and setting: next, `CC(C)c1noc([C@]23CC[C@H](CC2=O)C3(C)C)n1`: 188 µM.
On to `CC1(C)[C@@H]2CC[C@@]1(C(=O)O/N=C(\N)c1ccc(Br)cc1)C(=O)C2`, for which the IC50 was determined as 13 µM.
On the same count and under the same terms, with `CCC(CC)O[C@@H]1C=C(C(=O)O)C[C@H](N)[C@H]1NC(C)=O` [OSELTAMIVIR CARBOXYLATE] the figure was 0.18 µM; with `CC1(C)[C@@H]2CC[C@@]1(c1nc(Cc3ccccc3F)no1)C(=O)C2`, 78 µM.
Same read-out and setting: with `CC1(C)[C@@H]2CC[C@@]1(C(=O)O/N=C(\N)Cc1ccc(Br)cc1)C(=O)C2` the figure was 12 µM; with `CC1(C)[C@@H]2CC[C@@]1(C(=O)O/N=C(\N)c1ccccn1)C(=O)C2`, 18 µM; with `CC(N)C12CC3CC(CC(C3)C1)C2` (stereo not drawn) [RIMANTADINE], 64 µM.
For `CC1(C)[C@@H]2CC[C@@]1(C(=O)O/N=C(\N)c1ccccc1F)C(=O)C2`, the IC50 worked out at 46 µM.
The same measure, in the same setting: next, `CC1(C)[C@@H]2CC[C@@]1(C(=O)O/N=C(\N)c1ccc(Cl)cc1)C(=O)C2`: 14 µM; `CC/C(N)=N/OC(=O)[C@]12CC[C@H](CC1=O)C2(C)C`: 162 µM.
On the same count and under the same terms, next, `CC1(C)[C@@H]2CC[C@@]1(C(=O)O/N=C(\N)c1ccncc1)C(=O)C2`: 78 µM; `CC1(C)[C@@H]2CC[C@@]1(C(=O)O/N=C(\N)Cc1ccc(F)cc1)C(=O)C2`: > 126 µM.

Test system in the next data set: not listed separately
Briefly: Cytotoxicity against MDCK cells infected with Influenza A virus A/Puerto Rico/8/34 (H1N1) assessed as reduction in cell viability. The class given is toxicity, cell-based, Canis lupus familiaris. The conditions noted are these: dog.
What is called CC50 is the concentration that lowers cell viability or growth by half. `CC1(C)[C@@H]2CC[C@@]1(c1nc(-c3ccc(F)cc3)no1)C(=O)C2`: the CC50 was 270 µM.
For the compound `CC1(C)[C@@H]2CC[C@@]1(C(=O)O/N=C(\N)c1cccc(F)c1)C(=O)C2`, the CC50 is 155 µM.
Same read-out and setting: with `CC1(C)[C@@H]2CC[C@@]1(c1nc(-c3cccc(F)c3)no1)C(=O)C2` the figure was > 1280 µM.
The same measure, in the same setting: next, `CC1(C)[C@@H]2CC[C@@]1(c1nc(-c3ccc(C(F)(F)F)cc3)no1)C(=O)C2`: 32 µM; `CC1(C)[C@@H]2CC[C@@]1(c1nc(-c3ccc(Cl)cc3)no1)C(=O)C2`: 52 µM; `CC1(C)[C@@H]2CC[C@@]1(c1nc(Cc3ccc(Br)cc3)no1)C(=O)C2`: > 792 µM.
Take `CC1(C)[C@@H]2CC[C@@]1(C(=O)O/N=C(\N)Cc1ccc(Cl)cc1)C(=O)C2`: the CC50 stood at 73 µM.
As for `CC1(C)[C@@H]2CC[C@@]1(c1nc(-c3ccccc3)no1)C(=O)C2`, the CC50 amounted to 198 µM.
The same measure, in the same setting: next, `CC(C)c1noc([C@]23CC[C@H](CC2=O)C3(C)C)n1`: 897 µM; `CC1(C)[C@@H]2CC[C@@]1(C(=O)O/N=C(\N)c1ccc(Br)cc1)C(=O)C2`: 387 µM.
Still for that read-out and setting: with `CCC(CC)O[C@@H]1C=C(C(=O)O)C[C@H](N)[C@H]1NC(C)=O` [OSELTAMIVIR CARBOXYLATE] the figure was > 100 µM.
The same measure, in the same setting: next, `CC1(C)[C@@H]2CC[C@@]1(c1nc(Cc3ccccc3F)no1)C(=O)C2`: 394 µM.
In the case of `CC1(C)[C@@H]2CC[C@@]1(C(=O)O/N=C(\N)Cc1ccc(Br)cc1)C(=O)C2`, the CC50 is 46 µM.
As to `CC1(C)[C@@H]2CC[C@@]1(C(=O)O/N=C(\N)c1ccccn1)C(=O)C2`, the CC50 came out at 751 µM.
On the same count and under the same terms, next, `CC(N)C12CC3CC(CC(C3)C1)C2` (stereo not drawn) [RIMANTADINE]: 379 µM; `CC1(C)[C@@H]2CC[C@@]1(C(=O)O/N=C(\N)c1ccccc1F)C(=O)C2`: 238 µM; `CC1(C)[C@@H]2CC[C@@]1(C(=O)O/N=C(\N)c1ccc(Cl)cc1)C(=O)C2`: 239 µM.
Still for that read-out and setting: next, `CC/C(N)=N/OC(=O)[C@]12CC[C@H](CC1=O)C2(C)C`: 807 µM.
The same measure, in the same setting: next, `CC1(C)[C@@H]2CC[C@@]1(C(=O)O/N=C(\N)c1ccncc1)C(=O)C2`: 846 µM; `CC1(C)[C@@H]2CC[C@@]1(C(=O)O/N=C(\N)Cc1ccc(F)cc1)C(=O)C2`: 244 µM.

Test system in a further data set: not listed separately
The data set can be described thus: Selectivity index, ratio of CC50 for cytotoxicity against MDCK cells infected with Influenza A virus A/Puerto Rico/8/34 (H1N1) to IC50 for antiviral activity against Influenza A virus A/Puerto Rico/8/34 (H1N1) infected in MDCK cells. The data set is classed as toxicity, cell-based. The conditions noted are these: dog; read-out: Ratio CC50/IC50.
Take `CC1(C)[C@@H]2CC[C@@]1(c1nc(-c3ccc(F)cc3)no1)C(=O)C2`: the selectivity ratio is 74.
Still for that read-out and setting: with `CC1(C)[C@@H]2CC[C@@]1(C(=O)O/N=C(\N)c1cccc(F)c1)C(=O)C2` the figure was 26; with `CC1(C)[C@@H]2CC[C@@]1(c1nc(-c3cccc(F)c3)no1)C(=O)C2`, > 231; with `CC1(C)[C@@H]2CC[C@@]1(c1nc(-c3ccc(C(F)(F)F)cc3)no1)C(=O)C2`, 5.
The same measure, in the same setting: next, `CC1(C)[C@@H]2CC[C@@]1(c1nc(-c3ccc(Cl)cc3)no1)C(=O)C2`: 2.
Same read-out and setting: next, `CC1(C)[C@@H]2CC[C@@]1(c1nc(Cc3ccc(Br)cc3)no1)C(=O)C2`: > 60.
With `CC1(C)[C@@H]2CC[C@@]1(C(=O)O/N=C(\N)Cc1ccc(Cl)cc1)C(=O)C2`, the selectivity ratio turned out to be 5.
Still for that read-out and setting: next, `CC1(C)[C@@H]2CC[C@@]1(c1nc(-c3ccccc3)no1)C(=O)C2`: 37; `CC(C)c1noc([C@]23CC[C@H](CC2=O)C3(C)C)n1`: 5.
The same measure, in the same setting: next, `CC1(C)[C@@H]2CC[C@@]1(C(=O)O/N=C(\N)c1ccc(Br)cc1)C(=O)C2`: 31; `CC1(C)[C@@H]2CC[C@@]1(c1nc(Cc3ccccc3F)no1)C(=O)C2`: 5.
Turning to `CC1(C)[C@@H]2CC[C@@]1(C(=O)O/N=C(\N)Cc1ccc(Br)cc1)C(=O)C2`, the selectivity ratio was found to be 4.
On the same count and under the same terms, with `CC1(C)[C@@H]2CC[C@@]1(C(=O)O/N=C(\N)c1ccccn1)C(=O)C2` the figure was 42; with `CC(N)C12CC3CC(CC(C3)C1)C2` (stereo not drawn) [RIMANTADINE], 6; with `CC1(C)[C@@H]2CC[C@@]1(C(=O)O/N=C(\N)c1ccccc1F)C(=O)C2`, 5.
Regarding `CC1(C)[C@@H]2CC[C@@]1(C(=O)O/N=C(\N)c1ccc(Cl)cc1)C(=O)C2`, the selectivity ratio amounted to 17.
As for `CC/C(N)=N/OC(=O)[C@]12CC[C@H](CC1=O)C2(C)C`, the selectivity ratio came to 5.
Still for that read-out and setting: with `CC1(C)[C@@H]2CC[C@@]1(C(=O)O/N=C(\N)c1ccncc1)C(=O)C2` the figure was 11; with `CC1(C)[C@@H]2CC[C@@]1(C(=O)O/N=C(\N)Cc1ccc(F)cc1)C(=O)C2`, < 2.

The next data set relates to Influenza A virus. Briefly: Antiviral activity against Influenza A virus A/Anhui/1/2013 (H7N9) infected in MDCK cells assessed as inhibition of viral replication. The class given is functional, organism-based.
Conditions: not given
Consider `CC1(C)[C@@H]2CC[C@@]1(c1nc(-c3ccc(F)cc3)no1)C(=O)C2`, for which the IC50 was 30 µM.
Still for that read-out and setting: with `CC1(C)[C@@H]2CC[C@@]1(C(=O)O/N=C(\N)c1cccc(F)c1)C(=O)C2` the figure was 21 µM; with `CC1(C)[C@@H]2CC[C@@]1(c1nc(-c3cccc(F)c3)no1)C(=O)C2`, 93 µM; with `CC1(C)[C@@H]2CC[C@@]1(c1nc(Cc3ccc(Br)cc3)no1)C(=O)C2`, 267 µM.
The same measure, in the same setting: with `CC1(C)[C@@H]2CC[C@@]1(c1nc(-c3ccccc3)no1)C(=O)C2` the figure was > 117 µM.
On the same count and under the same terms, next, `CC1(C)[C@@H]2CC[C@@]1(C(=O)O/N=C(\N)c1ccc(Br)cc1)C(=O)C2`: 3 µM; `CCC(CC)O[C@@H]1C=C(C(=O)O)C[C@H](N)[C@H]1NC(C)=O` [OSELTAMIVIR CARBOXYLATE]: 0.16 µM; `CC1(C)[C@@H]2CC[C@@]1(C(=O)O/N=C(\N)c1ccccn1)C(=O)C2`: 110 µM.
As to `CC(N)C12CC3CC(CC(C3)C1)C2` (stereo not drawn) [RIMANTADINE], the IC50 is 51 µM.
The same measure, in the same setting: with `CC1(C)[C@@H]2CC[C@@]1(C(=O)O/N=C(\N)c1ccc(Cl)cc1)C(=O)C2` the figure was > 30 µM.

Test system in another data set: not listed separately
Briefly: Cytotoxicity against MDCK cells infected with Influenza A virus A/Anhui/1/2013 (H7N9) assessed as reduction in cell viability. The data set is classed as toxicity, cell-based, Canis lupus familiaris. The note with it: dog.
`CC1(C)[C@@H]2CC[C@@]1(c1nc(-c3ccc(F)cc3)no1)C(=O)C2`: the CC50 worked out at 203 µM.
Still for that read-out and setting: next, `CC1(C)[C@@H]2CC[C@@]1(C(=O)O/N=C(\N)c1cccc(F)c1)C(=O)C2`: 79 µM; `CC1(C)[C@@H]2CC[C@@]1(c1nc(-c3cccc(F)c3)no1)C(=O)C2`: > 1000 µM; `CC1(C)[C@@H]2CC[C@@]1(c1nc(Cc3ccc(Br)cc3)no1)C(=O)C2`: > 800 µM.
The same measure, in the same setting: next, `CC1(C)[C@@H]2CC[C@@]1(c1nc(-c3ccccc3)no1)C(=O)C2`: 199 µM.
The same measure, in the same setting: with `CC1(C)[C@@H]2CC[C@@]1(C(=O)O/N=C(\N)c1ccc(Br)cc1)C(=O)C2` the figure was 354 µM; with `CCC(CC)O[C@@H]1C=C(C(=O)O)C[C@H](N)[C@H]1NC(C)=O` [OSELTAMIVIR CARBOXYLATE], > 100 µM.
Regarding `CC1(C)[C@@H]2CC[C@@]1(C(=O)O/N=C(\N)c1ccccn1)C(=O)C2`, the CC50 worked out at 688 µM.
For `CC1(C)[C@@H]2CC[C@@]1(C(=O)O/N=C(\N)c1ccc(Cl)cc1)C(=O)C2`, the CC50 was 75 µM.

Test system in the next data set: not listed separately
The data set can be described thus: Selectivity index, ratio of CC50 for cytotoxicity against MDCK cells infected with Influenza A virus A/Anhui/1/2013 (H7N9) to IC50 for antiviral activity against Influenza A virus A/Anhui/1/2013 (H7N9) infected in MDCK cells. The data set is classed as toxicity, cell-based. The conditions noted are these: dog; read-out: Ratio CC50/IC50.
As for `CC1(C)[C@@H]2CC[C@@]1(c1nc(-c3ccc(F)cc3)no1)C(=O)C2`, the selectivity ratio worked out at 7.
Still for that read-out and setting: with `CC1(C)[C@@H]2CC[C@@]1(C(=O)O/N=C(\N)c1cccc(F)c1)C(=O)C2` the figure was 4; with `CC1(C)[C@@H]2CC[C@@]1(c1nc(-c3cccc(F)c3)no1)C(=O)C2`, 11; with `CC1(C)[C@@H]2CC[C@@]1(c1nc(Cc3ccc(Br)cc3)no1)C(=O)C2`, 3.
On to `CC1(C)[C@@H]2CC[C@@]1(c1nc(-c3ccccc3)no1)C(=O)C2`, for which the selectivity ratio was 2.
Still for that read-out and setting: next, `CC1(C)[C@@H]2CC[C@@]1(C(=O)O/N=C(\N)c1ccc(Br)cc1)C(=O)C2`: 118; `CCC(CC)O[C@@H]1C=C(C(=O)O)C[C@H](N)[C@H]1NC(C)=O` [OSELTAMIVIR CARBOXYLATE]: > 625.
Still for that read-out and setting: with `CC1(C)[C@@H]2CC[C@@]1(C(=O)O/N=C(\N)c1ccccn1)C(=O)C2` the figure was 6.
The same measure, in the same setting: next, `CC(N)C12CC3CC(CC(C3)C1)C2` (stereo not drawn) [RIMANTADINE]: 7.
Turning to `CC1(C)[C@@H]2CC[C@@]1(C(=O)O/N=C(\N)c1ccc(Cl)cc1)C(=O)C2`, the selectivity ratio worked out at 3.
